Experimental findings from patent US12365674B2, “Inhibitors of histone deacetylase useful for the treatment or prevention of HIV infection” (Merck Sharp & Dohme LLC, priority 2019, dated 2025) are described below.

What all share (assay type): biochemical
One assay concerns the target T1, human HDAC8 (Homo sapiens, UniProt Q9BY41).
T1 construct: purchased Enzo Life Sciences BML-SE145-0100
T1 sequence (Q9BY41 1-377): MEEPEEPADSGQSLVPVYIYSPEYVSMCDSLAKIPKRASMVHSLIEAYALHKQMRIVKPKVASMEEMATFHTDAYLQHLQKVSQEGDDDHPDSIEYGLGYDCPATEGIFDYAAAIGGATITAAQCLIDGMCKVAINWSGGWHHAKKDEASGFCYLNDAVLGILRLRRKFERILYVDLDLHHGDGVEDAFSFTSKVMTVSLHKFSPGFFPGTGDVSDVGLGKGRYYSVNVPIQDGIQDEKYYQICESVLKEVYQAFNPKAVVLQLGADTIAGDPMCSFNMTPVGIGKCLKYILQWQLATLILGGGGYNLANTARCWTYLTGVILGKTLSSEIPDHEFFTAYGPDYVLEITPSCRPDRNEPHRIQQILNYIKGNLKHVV
In words: Human HDAC enzyme inhibitor Fluor-de-Lys assay, HDAC8. Conditions: 1.3 nM enzyme, 200 μM substrate BML-KI178, 3 h pre-incubation, 60 min reaction; read-out: HDAC8_IC50. An excerpt: (§1) Recombinant human HDAC8 (catalog number BML-SE145-0100) and HDAC10 (catalog number BML-SE559-0050) enzymes, HDAC substrates BML-KI104 and BML-KI178, and HDAC developer solutions BML-KI105 and BML-KI176 were purchased from Enzo Life Sciences (Farmingdale, NY). Recombinant human HDAC5 and HDAC11 were purchased from BPS Bioscience (San Diego, CA)(catalog numbers 50045 and 50021). Substrate Boc-Lys(TFA)-AMC was obtained from Bachem (Bupendorf, Switzerland) (catalog number 1-1985). HDAC inhibitor suberoylanilide hydroxamic acid (SAHA) was obtained from Indofine (Hillsborough Township, NJ) and trichostatin A (TSA) was obtained from Sigma-Aldrich (St. Louis, MO). […] HEPES pH 8.0 was obtained from Boston BioProducts (Ashland, MA), Tween-20 from Fisher Scientific (Hampton, NH)(catalog number BP337), TCEP from Calbiochem and 7.5% bovine serum albumin (BSA) from Life Technologies (Carlsbad, CA) (catalog number 15260037). 384-well, black assay plates were obtained from Corning (Corning, NY) (catalog number 3575).
(§2) The histone deacetylase activities of HDAC1, HDAC2, HDAC3, HDAC6, and HDAC8 were measured in modified Fluor-de-Lys assays in 384-well format. In this assay, HDAC enzymes are initially incubated with an ε-acetyl (or -trifluoroacetyl)-L-lysine-containing substrate with a C-terminal amide having aminomethylcoumarin as the amine component. HDACs cleave the ε-acetyl group, rendering the resulting product susceptible to AMC cleavage by trypsin. The released AMC is then detected by its fluorescence.
(§3) The HDAC 1, 2 assays employed buffer A, which contained 20 mM HEPES, pH 8.0, 1 mM MgCl2, 137 mM NaCl, 2.7 mM KCl, 0.05% BSA. The HDAC3/SMRT assay employed buffer B, consisting of 20 mM HEPES, pH 8.0, 1 mM MgCl2, 50 mM NaCl, 2.7 mM KCl, 0.05% BSA, 0.005% Tween 20, and 10 μM IP4. The HDAC6 assay employed buffer C, consisting of 20 mM HEPES, pH 8.0, 1 mM MgCl2, 137 mM NaCl, 2.7 mM KCl, 0.5 mM TCEP (Calbiochem) and 0.05% BSA. The HDAC8 assay employed buffer D, consisting of 20 mM HEPES, pH 8.0, 1 mM MgCl2, 100 mM NaCl, 20 mM KCl, 0.1% n-octyl-β-D-glucoside (Anatrace, Maumee, OH) and 0.05% BSA. All steps were performed at room temperature (23° C.). The assay was performed by pre-incubating serial dilutions of test compounds with the target HDAC prior to initiation with substrate. Each compound was titrated in a 10-point dose response, using a 1:3 fold dilution scheme, with 0.15 ul of solution added by ECHO555 to the plate, followed by the addition of 20 μl of the appropriate HDAC isoform diluted in appropriate assay buffer. […] Final conditions used for each assay were: 1. HDAC 1, 0.3 nM total enzyme, 20 μM substrate BML-K1104; 2. HDAC 2, 1.5 nM total enzyme, 40 μM substrate BML-K1104; 3. HDAC 3/SMRT, 0.3 nM total enzyme, 20 μM substrate BML-K1104; 4. HDAC 6, 1.3 nM total enzyme, 2.5 μM substrate BML-K1104; 5. HDAC 8, 1.3 nM total enzyme, 200 μM substrate BML-K1178; the final high dose of test compound was 30 μM. For potent compounds, 900 nM was used as the final high dose. The reactions were stopped and developed by addition of 30 ul of HDAC developer solution containing a saturating level of HDAC inhibitor as follows: 1.

A further assay addresses T2, HDAC6 (Homo sapiens, UniProt Q9UBN7).
T2 sequence (Q9UBN7 1-1215): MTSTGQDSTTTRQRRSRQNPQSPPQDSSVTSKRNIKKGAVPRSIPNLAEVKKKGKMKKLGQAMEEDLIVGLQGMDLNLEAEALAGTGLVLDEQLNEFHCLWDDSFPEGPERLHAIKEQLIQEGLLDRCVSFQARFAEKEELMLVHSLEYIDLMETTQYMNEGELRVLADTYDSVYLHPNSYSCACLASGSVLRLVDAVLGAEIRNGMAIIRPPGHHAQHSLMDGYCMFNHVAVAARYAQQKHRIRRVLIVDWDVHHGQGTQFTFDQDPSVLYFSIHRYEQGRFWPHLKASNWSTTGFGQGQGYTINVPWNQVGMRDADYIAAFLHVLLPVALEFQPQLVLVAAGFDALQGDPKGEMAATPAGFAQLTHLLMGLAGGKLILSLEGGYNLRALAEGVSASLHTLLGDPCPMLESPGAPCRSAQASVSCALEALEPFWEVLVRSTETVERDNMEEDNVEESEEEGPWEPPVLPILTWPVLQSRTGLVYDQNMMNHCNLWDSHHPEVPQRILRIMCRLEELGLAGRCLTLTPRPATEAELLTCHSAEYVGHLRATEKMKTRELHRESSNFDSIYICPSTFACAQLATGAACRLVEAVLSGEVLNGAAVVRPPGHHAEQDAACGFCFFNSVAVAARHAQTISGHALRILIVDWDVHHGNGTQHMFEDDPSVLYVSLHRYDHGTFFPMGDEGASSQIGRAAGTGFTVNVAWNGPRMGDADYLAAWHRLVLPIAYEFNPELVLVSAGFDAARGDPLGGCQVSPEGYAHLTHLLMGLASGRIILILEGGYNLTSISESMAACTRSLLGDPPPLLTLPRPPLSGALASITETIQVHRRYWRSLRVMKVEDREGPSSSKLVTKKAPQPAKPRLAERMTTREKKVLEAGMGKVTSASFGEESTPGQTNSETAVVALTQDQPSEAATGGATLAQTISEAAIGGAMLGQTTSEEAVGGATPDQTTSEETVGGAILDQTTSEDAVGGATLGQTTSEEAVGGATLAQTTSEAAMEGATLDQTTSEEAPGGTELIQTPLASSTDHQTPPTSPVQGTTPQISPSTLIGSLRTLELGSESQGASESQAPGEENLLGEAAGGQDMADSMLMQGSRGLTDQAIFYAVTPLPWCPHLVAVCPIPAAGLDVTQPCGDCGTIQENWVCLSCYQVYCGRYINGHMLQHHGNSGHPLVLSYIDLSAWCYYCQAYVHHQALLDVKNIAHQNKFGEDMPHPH
In words: Human HDAC enzyme inhibitor Fluor-de-Lys assay, HDAC6. Conditions: 1.3 nM enzyme, 2.5 μM substrate BML-KI104, 3 h pre-incubation, 60 min reaction; read-out: HDAC6_IC50.
From the text: as §1, §2, §3

In another assay the target is T3, human HDAC2 (Homo sapiens, UniProt Q92769).
T3 construct: Full length human HDAC2-FLAG was expressed in baculovirus infected Sf9 cells; host or cells: baculovirus infected Sf9 cells
T3 sequence (Q92769 whole entry): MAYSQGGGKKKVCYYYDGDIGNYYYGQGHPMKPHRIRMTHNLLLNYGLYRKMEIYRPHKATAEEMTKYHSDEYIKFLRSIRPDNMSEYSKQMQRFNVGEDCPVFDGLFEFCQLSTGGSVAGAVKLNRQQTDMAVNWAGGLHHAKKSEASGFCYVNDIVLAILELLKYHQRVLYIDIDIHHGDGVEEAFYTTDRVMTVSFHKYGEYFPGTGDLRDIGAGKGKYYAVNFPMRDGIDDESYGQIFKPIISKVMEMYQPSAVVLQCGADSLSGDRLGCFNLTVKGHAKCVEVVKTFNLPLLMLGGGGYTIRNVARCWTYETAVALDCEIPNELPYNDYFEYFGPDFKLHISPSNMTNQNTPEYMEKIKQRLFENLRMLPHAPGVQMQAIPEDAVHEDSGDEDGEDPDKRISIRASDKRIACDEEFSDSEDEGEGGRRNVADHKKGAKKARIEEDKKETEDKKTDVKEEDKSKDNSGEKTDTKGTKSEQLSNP
In words: Human HDAC enzyme inhibitor Fluor-de-Lys assay, HDAC2. Conditions: 1.5 nM enzyme, 40 μM substrate BML-KI104, 3 h pre-incubation, 60 min reaction; read-out: HDAC2_IC50.
From the text: as §1
(§4) Recombinant human HDAC1, HDAC2, and HDAC3/SMRT heterodimer were prepared by Merck Research Laboratories. […] The eluted protein was then passed over an anti-HDAC1 immunoaffinity column to remove any complexes containing HDAC1. […]
as §2
as §3, with “For potent compounds, 900 nM was used as the final high dose.” left out

In assay [1] the target is T4, human HDAC3/SMRT heterodimer (Homo sapiens, UniProt O15379).
T4 construct: Full length human HDAC3-FLAG was expressed in HEK-293F cells along with SMRT; host or cells: HEK-293F cells
T4 sequence (O15379 whole entry): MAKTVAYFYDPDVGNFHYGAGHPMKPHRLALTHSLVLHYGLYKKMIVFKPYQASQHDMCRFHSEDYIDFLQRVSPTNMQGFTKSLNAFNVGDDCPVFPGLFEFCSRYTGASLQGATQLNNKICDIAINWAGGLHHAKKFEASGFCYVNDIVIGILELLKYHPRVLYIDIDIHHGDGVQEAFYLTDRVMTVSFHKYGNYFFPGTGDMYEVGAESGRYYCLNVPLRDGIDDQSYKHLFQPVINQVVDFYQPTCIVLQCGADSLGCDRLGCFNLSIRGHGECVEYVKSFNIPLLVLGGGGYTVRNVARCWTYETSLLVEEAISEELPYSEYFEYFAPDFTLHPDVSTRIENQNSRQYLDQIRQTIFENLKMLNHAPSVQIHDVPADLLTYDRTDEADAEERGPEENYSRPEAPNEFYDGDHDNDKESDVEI
T4 sequence (Q9Y618 1-899 partner limits assumed): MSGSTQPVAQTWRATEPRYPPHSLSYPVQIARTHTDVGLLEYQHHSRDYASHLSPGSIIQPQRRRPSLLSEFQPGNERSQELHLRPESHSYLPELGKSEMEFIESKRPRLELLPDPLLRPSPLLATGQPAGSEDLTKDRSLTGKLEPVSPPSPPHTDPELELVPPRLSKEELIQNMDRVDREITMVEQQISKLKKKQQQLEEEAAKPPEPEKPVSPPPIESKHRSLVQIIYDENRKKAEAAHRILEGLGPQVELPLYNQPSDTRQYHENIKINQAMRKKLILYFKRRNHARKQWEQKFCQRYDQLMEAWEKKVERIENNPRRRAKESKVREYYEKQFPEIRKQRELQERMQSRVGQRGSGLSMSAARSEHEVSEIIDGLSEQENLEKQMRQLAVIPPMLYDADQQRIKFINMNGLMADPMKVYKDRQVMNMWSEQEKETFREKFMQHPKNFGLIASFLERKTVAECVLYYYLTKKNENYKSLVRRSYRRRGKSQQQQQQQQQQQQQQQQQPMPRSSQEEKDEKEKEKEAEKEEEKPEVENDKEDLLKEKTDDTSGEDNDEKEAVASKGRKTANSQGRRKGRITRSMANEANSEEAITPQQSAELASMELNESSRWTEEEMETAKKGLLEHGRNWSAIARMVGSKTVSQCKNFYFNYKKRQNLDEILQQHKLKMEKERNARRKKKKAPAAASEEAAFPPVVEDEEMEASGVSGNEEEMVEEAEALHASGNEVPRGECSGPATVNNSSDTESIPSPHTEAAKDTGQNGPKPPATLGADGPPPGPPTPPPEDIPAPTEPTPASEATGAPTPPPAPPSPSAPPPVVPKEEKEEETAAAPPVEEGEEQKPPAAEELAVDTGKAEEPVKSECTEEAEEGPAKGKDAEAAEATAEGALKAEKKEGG
In words: Human HDAC enzyme inhibitor Fluor-de-Lys assay, HDAC3/SMRT. Conditions: HDAC3/SMRT 0.3 nM enzyme, 20 μM substrate BML-KI104, 10 μM IP4, 3 h pre-incubation, 60 min reaction; read-out: HDAC3_IC50.
From the text: as §1, §4, §2
as §3, with “For potent compounds, 900 nM was used as the final high dose.” left out

Consider `CCC(=O)CCCOC[C@H](NC(=O)[C@H]1CC12CCN(C)CC2)c1ncc(-c2cc3ccccc3nc2OC)[nH]1` [Compound 4, (S)—N—((R)-1-(5-(2-methoxyquinolin-3-yl)-1H-imidazol-2-yl)-2-((4-oxohexyl)oxy)ethyl)-6-methyl-6-azaspiro[2.5]octane-1-carboxamide], for which the IC50 at human HDAC8 was > 45 µM; on HDAC6, 23.3 µM.

Turning to `CCC(=O)CCCOC[C@H](NC(=O)C1CN(C)C1)c1ncc(-c2cc3ccccc3nc2OC)[nH]1` [Compound 3, (R)—N-(1-(5-(2-methoxyquinolin-3-yl)-1H-imidazol-2-yl)-2-((4-oxohexyl)oxy)ethyl)-1-methylazetidine-3-carboxamide], the values for the IC50 (at human HDAC2; in assay [1]) were 4.35 µM and 0.298 µM, respectively.
